Measured values as given in ChEMBL document CHEMBL1129528, “Synthesis and biological evaluation of N-acetylneuraminic acid-based rotavirus inhibitors” (J Med Chem, 1996).

Tests used:
Type in all cases: functional, organism-based
Rotavirus [1] = assay: Inhibitory activity against Wa(human) rotavirus strain.
Rotavirus [2] = assay: Inhibitory activity against UK(bovine) rotavirus strain.
Rotavirus [3] = assay: Inhibitory activity against NCDV(bovine) rotavirus strain.
Rotavirus [4] = assay: Inhibitory activity against SA11 (simian) rotavirus strain.

SMILES | IC50 (Rotavirus [1]) | IC50 (Rotavirus [2]) | IC50 (Rotavirus [3]; Rotavirus) | IC50 (Rotavirus [4]; Rotavirus) | IC50 (Rotavirus [3]) | IC50 (Rotavirus [4])
CC(=O)NC1C(O)CC(SC[C@@H](O)C2OC3OC(C)(C)OC3C2O)(C(=O)O)OC1[C@H](O)[C@H](O)CO (some centres undefined) | > 25 mM | 25 mM | 6.25 mM | 6.25 mM |  | 
COC1OC(CSC2(C(=O)O)CC(O)C(NC(C)=O)C([C@H](O)[C@H](O)CO)O2)C(O)C(O)C1NC(C)=O (some centres undefined) | > 25 mM | > 25 mM | 6.25 mM | 25 mM |  | 
COC1OC(CSC2(C(=O)O)CC(O)C(NC(C)=O)C([C@H](O)[C@H](O)CO)O2)C(O)C(O)C1O (stereo in doubt; 16) | > 25 mM | > 25 mM | 6.25 mM | 12.5 mM |  | 
COC1OC(CSC2(C(=O)O)CC(O)C(NC(C)=O)C([C@H](O)[C@H](O)CO)O2)C(O)C(O)C1O (stereo in doubt; 14) |  |  |  |  | 6.25 mM | 25 mM
COC1OC(CO)C(SC2(C(=O)O)CC(O)C(NC(C)=O)C([C@H](O)[C@H](O)CO)O2)C(O)C1O (some centres undefined) | > 25 mM | > 25 mM | 6.25 mM | 25 mM |  | 
COC1OC(CSC2(C(=O)O)CC(O)C(NC(C)=O)C([C@H](O)[C@H](O)COC(C)=O)O2)C(OC(C)=O)C(O)C1O (some centres undefined) | > 25 mM | 12.5 mM | 1.5 mM | 25 mM |  | 
CO[C@H]1O[C@H](CSC2(C(=O)O)CC(O)C(NC(C)=O)C(C(O)[C@H](O)CO)O2)[C@@H](O)[C@@H]1O (single isomer, unassigned) | > 25 mM | > 25 mM | 6.25 mM | > 25 mM |  | 
COC1OC(CSC2(C(=O)O)CC(O)C(NC(C)=O)C([C@H](O)[C@H](O)COC(C)=O)O2)C(O)C(O)C1NC(C)=O (some centres undefined) | > 25 mM | 12.5 mM | 0.35 mM | > 25 mM |  | 
COC1OC(CSC2(C(=O)O)CC(O)C(NC(C)=O)C([C@H](O)[C@H](O)COC(C)=O)O2)C(O)C(O)C1O (some centres undefined) | > 25 mM | 25 mM | 1.5 mM | > 25 mM |  | 
